Source: patent US20160250213A1, “FORMULATIONS OF AZAINDOLE COMPOUNDS” (priority 2013, published 2016)
Counter-ions that a name gives are not always drawn. Like-named read-outs stand apart in the source and are kept apart here. Marks after values point to notes of the source that are not given here.

Legend:
physchem = details: water, thermodynamic from solid
[1] = Water activity tests: competition slurry in IPA/water mixtures; assay type: physicochemical
[2] = ambient temperature
influenza A virus = assay type: in vivo, mice
[3] = test system: Influenza A/California/04/2009 (pndH1N1) virus; assay type: in vivo, BALB/c mice; details: 10 mg/kg p.o. twice a day for 10 days starting 2 hours prior to virus exposure
influenza A = test system: influenza A; set-up: species or system mice; details: mouse, in vivo
[4] = test system: Influenza A/Victoria/3/75 (H3N2) virus; assay type: in vivo, BALB/c mice; details: 10 mg/kg p.o. twice a day for 10 days starting 2 hours prior to virus exposure
A/Puerto Rico/8/34 = assay type: cell-based, influenza A virus
[5] = solvent Acetonitrile, listed as Form A HCl salt of Compound (1)
[6] = solvent Chloroform, listed as Form A HCl salt of Compound (1)
[7] = solvent Dimethylsulfoxide, listed as Form A HCl salt of Compound (1)
[8] = solvent Formic acid, listed as Form A HCl salt of Compound (1)

O=C(O)[C@H]1C2CCC(CC2)C1Nc1nc(-c2c[nH]c3ncc(F)cc23)ncc1F (stereo partly shown) [Form A of HCl salt of Compound (1).½H2O]
solubility thermodynamic (physchem): 600 µg/mL
form conversion in competition slurry [1]: converted to Form F
Sol. ([2]; solvent 1,1,2-Trichloroethane, listed as Form A HCl salt of Compound (1)): <0.1 mg/mL
Sol. ([2]; solvent 1,2-Dichloroethane, listed as Form A HCl salt of Compound (1)): 1.7 mg/mL
Sol. ([2]; solvent 1,2-Dimethoxyethane, listed as Form A HCl salt of Compound (1)): 0.5 mg/mL
Sol. ([2]; solvent 1,4-Dioxane, listed as Form A HCl salt of Compound (1)): 0.4 mg/mL
Sol. ([2]; solvent 1-Butanol, listed as Form A HCl salt of Compound (1)): 2.9 mg/mL
Sol. ([2]; solvent 1-Pentanol, listed as Form A HCl salt of Compound (1)): 3.3 mg/mL
Sol. ([2]; solvent 1-Propanol, listed as Form A HCl salt of Compound (1)): 10.7 mg/mL
Sol. ([2]; solvent 2-Butanol, listed as Form A HCl salt of Compound (1)): 2.9 mg/mL
Sol. ([2]; solvent 2-Methoxyethanol, listed as Form A HCl salt of Compound (1)): 34.1 mg/mL
Sol. ([2]; solvent 2-Methy-1-propanol, listed as Form A HCl salt of Compound (1)): 3.5 mg/mL
Sol. ([2]; solvent 2-Propanol, listed as Form A HCl salt of Compound (1)): 3.3 mg/mL
Sol. ([2]; solvent 3-Methyl-1-butanol, listed as Form A HCl salt of Compound (1)): 3.2 mg/mL
Sol. ([2]; solvent Acetone, listed as Form A HCl salt of Compound (1)): 1.5 mg/mL
Resulting Form [2, 5]: Solvate
Sol. [2, 5]: 0.5 mg/mL
Sol. ([2]; solvent Anisole, listed as Form A HCl salt of Compound (1)): <0.1 mg/mL
Sol. ([2]; solvent Butyl acetate, listed as Form A HCl salt of Compound (1)): 0.2 mg/mL
Sol. ([2]; solvent Chlorobenzene, listed as Form A HCl salt of Compound (1)): <0.1 mg/mL
Resulting Form [2, 6]: Solvate
Sol. [2, 6]: <0.1 mg/mL
Sol. ([2]; solvent Cumene, listed as Form A HCl salt of Compound (1)): <0.1 mg/mL
Sol. ([2]; solvent Cyclohexane): <0.1 mg/mL
Sol. ([2]; solvent Dichloromethane, listed as Form A HCl salt of Compound (1)): 0.1 mg/mL
Resulting Form [2, 7]: Solvate
Sol. [2, 7]: 346.5 mg/mL
Sol. ([2]; solvent Ethanol, listed as Form A HCl salt of Compound (1)): 19.9 mg/mL
Sol. ([2]; solvent Ethyl acetate, listed as Form A HCl salt of Compound (1)): 0.2 mg/mL
Sol. ([2]; solvent Ethyl ether, listed as Form A HCl salt of Compound (1)): 0.1 mg/mL
Sol. ([2]; solvent Ethyl formate, listed as Form A HCl salt of Compound (1)): 0.4 mg/mL
Resulting Form ([2]; solvent Ethylene glycol): Solvate
Sol. ([2]; solvent Ethylene glycol, listed as Form A HCl salt of Compound (1)): 108.1 mg/mL
Resulting Form [2, 8]: Solvate
Sol. [2, 8]: 214.0 mg/mL
Sol. ([2]; solvent Heptane, listed as Form A HCl salt of Compound (1)): <0.1 mg/mL
Sol. ([2]; solvent Hexane): <0.1 mg/mL
Sol. ([2]; solvent Isobutyl acetate, listed as Form A HCl salt of Compound (1)): 0.2 mg/mL
Sol. ([2]; solvent Isopropyl acetate, listed as Form A HCl salt of Compound (1)): 0.4 mg/mL
Resulting Form ([2]; solvent Methanol): Solvate
Sol. ([2]; solvent Methanol, listed as Form A HCl salt of Compound (1)): 46.4 mg/mL
Sol. ([2]; solvent Methyl acetate, listed as Form A HCl salt of Compound (1)): 0.6 mg/mL
Sol. ([2]; solvent Methyl tetrahydrofuran, listed as Form A HCl salt of Compound (1)): 0.7 mg/mL
Sol. ([2]; solvent Methylbutyl ketone, listed as Form A HCl salt of Compound (1)): 0.4 mg/mL
Sol. ([2]; solvent Methylcyclohexane): <0.1 mg/mL
Sol. ([2]; solvent Methylethyl ketone, listed as Form A HCl salt of Compound (1)): 0.5 mg/mL
Sol. ([2]; solvent Nitromethane, listed as Form A HCl salt of Compound (1)): <0.1 mg/mL
Sol. ([2]; solvent Pentane, listed as Form A HCl salt of Compound (1)): <0.1 mg/mL
Sol. ([2]; solvent Propyl acetate, listed as Form A HCl salt of Compound (1)): 0.8 mg/mL
Sol. ([2]; solvent Tetrahydrofuran, listed as Form A HCl salt of Compound (1)): 0.7 mg/mL
Sol. ([2]; solvent Tetralin): <0.1 mg/mL
Sol. ([2]; solvent Toluene, listed as Form A HCl salt of Compound (1)): <0.1 mg/mL
stability in solvent systems ([2]; solvent systems listed in b317 (chlorobenzene to methyl tetrahydrofuran), 2 weeks): stable
Sol. ([2]; solvent t-Butylmethylether, listed as Form A HCl salt of Compound (1)): 0.4 mg/mL
Sol. ([2]; solvent xylene, listed as Form A HCl salt of Compound (1)): <0.1 mg/mL

CCOC(=O)C1=C[C@@H](OC(CC)CC)[C@H](NC(C)=O)[C@@H](N)C1 [Oseltamivir, reference compound]
dosing initiation post infection up to which complete protection is provided (influenza A virus; 10 mg/kg BID): ≤ 24 h
survival (influenza A virus; 10 mg/kg BID, same experiment (prophylactic)): survived
survival (influenza A virus; mouse, in vivo): survived
Mean Lung Parameters (Day 6): Score (hemorrhage, 0 to 4) [3]: 1.0
Mean Lung Parameters (Day 6): Virus Titer [3]: 7.9 Log10 CCID50/g
Mean Lung Parameters (Day 6): Weight [3]: 178 mg
Survivors/Total [3]: 10/10***
Log10 Reduction vs. Vehicle (influenza A): −0.15 Log10
Lung Viral Titer (influenza A; 10 mg/kg): 6.05 Log10 TCID50
MDD ± SD (mean day of death of mice that died on or before day 21) [4]: 7.0
Mean Lung Parameters (Day 6): Score (hemorrhage, 0 to 4) [4]: 1.7 ± 1.1
Mean Lung Parameters (Day 6): Virus Titer [4]: 7.0 ± 0.3 Log10 CCID50/g
Mean Lung Parameters (Day 6): Weight [4]: 218 ± 24 mg
Survivors/Total [4]: 9/10***
C.I. (combination index) values at the 50% effect level (A/Puerto Rico/8/34): 0.58

CC(=O)N[C@H]1[C@H]([C@H](O)[C@H](O)CO)OC(C(=O)O)=C[C@@H]1N=C(N)N [Zanamivir]
C.I. (combination index) values at the 50% effect level (A/Puerto Rico/8/34): 0.64
Synergy Volume, 95% Confidence (A/Puerto Rico/8/34): 268

O=C(O)[C@H]1C2CCC(CC2)C1Nc1nc(-c2c[nH]c3ncc(F)cc23)ncc1F (stereo partly shown) [amorphous compound (1)]
Resulting Form ([2]; solvent 1,1,2-Trichloroethane): Amorphous
Resulting Form ([2]; solvent 1,2-Dichloroethane): Amorphous
Resulting Form ([2]; solvent 1,2-Dimethoxyethane): Amorphous
Resulting Form ([2]; solvent 1,4-Dioxane): Solvate (1:1)
Resulting Form ([2]; solvent 1-Butanol): Solvate (1:1)
Resulting Form ([2]; solvent 1-Pentanol): Solvate(1:1)
Resulting Form ([2]; solvent 1-Propanol): No signal
Resulting Form ([2]; solvent 2-Butanol): Solvate(1:1)
Resulting Form ([2]; solvent 2-Ethoxyethanol): No signal
Resulting Form ([2]; solvent 2-Methoxyethanol): No signal
Resulting Form ([2]; solvent 2-Methy-1-propanol): Solvate(1:1)
Resulting Form ([2]; solvent 2-Propanol): Solvate(1:1)
Resulting Form ([2]; solvent 3-Methyl-1-butanol): Solvate
Resulting Form ([2]; solvent Acetone): Solvate
Resulting Form ([2]; solvent Acetonitrile): Amorphous
Resulting Form ([2]; solvent Anisole): Amorphous
Resulting Form ([2]; solvent Butyl acetate): Amorphous
Resulting Form ([2]; solvent Chlorobenzene): Amorphous
Resulting Form ([2]; solvent Chloroform): Amorphous
Resulting Form ([2]; solvent Cumene): Amorphous
Resulting Form ([2]; solvent Cyclohexane): Amorphous
Resulting Form ([2]; solvent Dichloromethane): Amorphous
Resulting Form ([2]; solvent Dimethylsulfoxide): No signal
Resulting Form ([2]; solvent Ethyl acetate): Amorphous
Resulting Form ([2]; solvent Ethyl ether): Amorphous
Resulting Form ([2]; solvent Ethyl formate): Solvate(1:1)
Resulting Form ([2]; solvent Ethylene glycol): Solvate
Resulting Form ([2]; solvent Formamide): Amorphous
Resulting Form ([2]; solvent Formic acid): No signal
Resulting Form ([2]; solvent Heptane): Solvate
Resulting Form ([2]; solvent Hexane): Amorphous
Resulting Form ([2]; solvent Isobutyl acetate): Amorphous
Resulting Form ([2]; solvent Isopropyl acetate): Amorphous
Resulting Form ([2]; solvent Methanol): Solvate
Resulting Form ([2]; solvent Methyl acetate): Solvate
Resulting Form ([2]; solvent Methyl tetrahydrofuran): Solvate(1:1)
Resulting Form ([2]; solvent Methylbutyl ketone): Amorphous
Resulting Form ([2]; solvent Methylcyclohexane): Amorphous
Resulting Form ([2]; solvent Methylethyl ketone): Solvate(1:1)
Resulting Form ([2]; solvent N,N-Dimethylacetamide): Solvate
Resulting Form ([2]; solvent N,N-Dimethylformamide): No signal
Resulting Form ([2]; solvent N-Methylpyrrolidinone): No signal
Resulting Form ([2]; solvent Nitromethane): Amorphous
Resulting Form ([2]; solvent Pentane): Amorphous
Resulting Form ([2]; solvent Propyl acetate): Amorphous
Resulting Form ([2]; solvent Tetrahydrofuran): Solvate(1:1)
Resulting Form ([2]; solvent Tetralin): Amorphous
Resulting Form ([2]; solvent Toluene): Amorphous
Resulting Form ([2]; solvent Water): Amorphous
Resulting Form ([2]; solvent acetic acid): Solvate
Resulting Form ([2]; solvent t-Butylmethylether): Amorphous
Resulting Form ([2]; solvent xylene): Amorphous

NC(=O)c1nc(F)c[nH]c1=O [favipiravir]
C.I. (combination index) values at the 50% effect level (A/Puerto Rico/8/34): 0.89
Synergy Volume, 95% Confidence (A/Puerto Rico/8/34): 317

CCC(CC)O[C@@H]1C=C(C(=O)O)C[C@H](N)[C@H]1NC(C)=O [oseltamivir carboxylate]
Synergy Volume, 95% Confidence (A/Puerto Rico/8/34; Bliss Independence (Macsynergy), in combination with Compound (1)): 312
